Results from US12492173B2, “Herbicidal substituted N-tetrazolyl aryl carboxamides” (Bayer Aktiengesellschaft, priority 2019, dated 2025).

tested on: Amaranthus retroflexus; test: Pre-emergence herbicidal action, AMARE; assay type: in vivo; parameters: key to Herbicidal action against AMARE: % activity: 100 = plants have died, 0 = like control plants; settings: comparative experiment, 80 g of a.i./ha
Outline: (§1)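 Percent damage, assessed visually after 3 weeks and referenced to untreated controls, reflects a pre-emergence treatment. Spray liquid equated to 600 to 800 l/ha with 0.2% wetting agent, applied to the covering soil over seeds in sandy loam.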

Compound | Herbicidal action against AMARE
CCSCc1c(C(F)(F)F)ccc(C(=O)Nc2nnnn2C)c1Br [Example 1-383] | 100

same assay, conditions: dosage 320 g/ha, scored visually after 3 weeks vs untreated controls (100% = plants have died)

Compound | herbicidal activity AMARE [%]
CSCc1c(C(F)(F)F)ccc(C(=O)Nc2nnnn2C)c1C [Example 1-83] | 100
CCCn1nnnc1NC(=O)c1ccc(C(F)F)c(CSC)c1SC [Example 3-170] | 100
CCCn1nnnc1NC(=O)c1ccc(C(F)F)c(CS(C)(=O)=O)c1Cl [Example 3-322] | 100
CCn1nnnc1NC(=O)c1ccc(C(F)(F)F)c(CSCCOC)c1Cl [Example 2-305] | 100
CCCn1nnnc1NC(=O)c1ccc(C(F)(F)F)c(C[S+](C)[O-])c1SC (stereo not shown) [Example 3-162] | 100
CCCn1nnnc1NC(=O)c1ccc(C(F)(F)F)c(CS(C)(=O)=O)c1SC [Example 3-163] | 100
CC[S+]([O-])Cc1c(C(F)(F)F)ccc(C(=O)Nc2nnnn2C)c1Br (racemic) [Example 1-384] | 100
CCSCc1c(C(F)(F)F)ccc(C(=O)Nc2nnnn2C)c1Br [Example 1-383] | 100
CCn1nnnc1NC(=O)c1ccc(C(F)(F)F)c(C[S+]([O-])CC2CC2)c1Cl (stereo not shown) [Example 2-315] | 100
CCSCc1c(C(F)(F)F)ccc(C(=O)Nc2nnnn2C)c1Cl [Example 1-299] | 100
Cn1nnnc1NC(=O)c1ccc(C(F)(F)F)c(CS(=O)(=O)C2CC2)c1Cl [Example 1-304] | 100

tested on: Avena fatua; test: Post-emergence herbicidal action, AVEFA; assay type: in vivo; parameters: key: % herbicidal action vs untreated; 100 = plants died, 0 = like control; settings: Dosage 80 g/ha
Outline: (§2)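 One-leaf-stage weeds, raised from seed in greenhouse sandy loam, received a single foliar spray of compound as wettable powder or emulsion concentrate with 0.2% wetting agent added. Growth continued under optimal conditions for about 3 weeks before percent damage was scored by eye against controls.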

Compound | herbicidal action AVEFA
CCCn1nnnc1NC(=O)c1ccc(C(F)F)c(CSC)c1SC [Example 3-170] | 80
CCCn1nnnc1NC(=O)c1ccc(C(F)F)c(CS(C)(=O)=O)c1Cl [Example 3-322] | 80
CCCn1nnnc1NC(=O)c1ccc(C(F)(F)F)c(CS(C)(=O)=O)c1SC [Example 3-163] | 90
CCn1nnnc1NC(=O)c1ccc(C(F)(F)F)c(C[S+]([O-])CC2CC2)c1Cl (stereo not shown) [Example 2-315] | 90

same assay, conditions: comparative experiment, post-emergence, 5 g of a.i./ha

Compound | Herbicidal action against AVEFA
CCSCc1c(C(F)(F)F)ccc(C(=O)Nc2nnnn2C)c1Cl [Example 1-299] | 80

same assay, conditions: comparative experiment, post-emergence, 20 g of a.i./ha

Compound | Herbicidal action against AVEFA
CCSCc1c(C(F)(F)F)ccc(C(=O)Nc2nnnn2C)c1Br [Example 1-383] | 90

same assay, conditions: post-emergence, dosage 80 g/ha

Compound | herbicidal action AVEFA [%]
CSCc1c(C(F)(F)F)ccc(C(=O)Nc2nnnn2C)c1C [Example 1-83] | 90
CCn1nnnc1NC(=O)c1ccc(C(F)(F)F)c(CSCCOC)c1Cl [Example 2-305] | 80
CCCn1nnnc1NC(=O)c1ccc(C(F)(F)F)c(C[S+](C)[O-])c1SC (stereo not shown) [Example 3-162] | 90
CC[S+]([O-])Cc1c(C(F)(F)F)ccc(C(=O)Nc2nnnn2C)c1Br (racemic) [Example 1-384] | 100
CCSCc1c(C(F)(F)F)ccc(C(=O)Nc2nnnn2C)c1Br [Example 1-383] | 90
CCSCc1c(C(F)(F)F)ccc(C(=O)Nc2nnnn2C)c1Cl [Example 1-299] | 90
Cn1nnnc1NC(=O)c1ccc(C(F)(F)F)c(CS(=O)(=O)C2CC2)c1Cl [Example 1-304] | 100

tested on: Polygonum convolvulus; test: Pre-emergence herbicidal action, POLCO; assay type: in vivo; settings: dosage 320 g/ha, scored visually after 3 weeks vs untreated controls (100% = plants have died)
Outline: as §1

Compound | herbicidal activity POLCO [%]
CSCc1c(C(F)(F)F)ccc(C(=O)Nc2nnnn2C)c1C [Example 1-83] | 100
CCCn1nnnc1NC(=O)c1ccc(C(F)F)c(CSC)c1SC [Example 3-170] | 90
CCCn1nnnc1NC(=O)c1ccc(C(F)F)c(CS(C)(=O)=O)c1Cl [Example 3-322] | 100
CCn1nnnc1NC(=O)c1ccc(C(F)(F)F)c(CSCCOC)c1Cl [Example 2-305] | 100
CCCn1nnnc1NC(=O)c1ccc(C(F)(F)F)c(C[S+](C)[O-])c1SC (stereo not shown) [Example 3-162] | 100
CCCn1nnnc1NC(=O)c1ccc(C(F)(F)F)c(CS(C)(=O)=O)c1SC [Example 3-163] | 80
CC[S+]([O-])Cc1c(C(F)(F)F)ccc(C(=O)Nc2nnnn2C)c1Br (racemic) [Example 1-384] | 90
CCSCc1c(C(F)(F)F)ccc(C(=O)Nc2nnnn2C)c1Br [Example 1-383] | 100
CCn1nnnc1NC(=O)c1ccc(C(F)(F)F)c(C[S+]([O-])CC2CC2)c1Cl (stereo not shown) [Example 2-315] | 90
CCSCc1c(C(F)(F)F)ccc(C(=O)Nc2nnnn2C)c1Cl [Example 1-299] | 90
Cn1nnnc1NC(=O)c1ccc(C(F)(F)F)c(CS(=O)(=O)C2CC2)c1Cl [Example 1-304] | 100

tested on: Stellaria media; test: Post-emergence herbicidal action, STEME; assay type: in vivo; parameters: key: % herbicidal action vs untreated; 100 = plants died, 0 = like control; settings: Dosage 80 g/ha
Outline: as §2

Compound | herbicidal action STEME
CCCn1nnnc1NC(=O)c1ccc(C(F)F)c(CSC)c1SC [Example 3-170] | 100
CCCn1nnnc1NC(=O)c1ccc(C(F)F)c(CS(C)(=O)=O)c1Cl [Example 3-322] | 100
CCCn1nnnc1NC(=O)c1ccc(C(F)(F)F)c(CS(C)(=O)=O)c1SC [Example 3-163] | 100
CCn1nnnc1NC(=O)c1ccc(C(F)(F)F)c(C[S+]([O-])CC2CC2)c1Cl (stereo not shown) [Example 2-315] | 100

same assay, conditions: comparative experiment, post-emergence, 5 g of a.i./ha

Compound | Herbicidal action against STEME
CCSCc1c(C(F)(F)F)ccc(C(=O)Nc2nnnn2C)c1Cl [Example 1-299] | 100

same assay, conditions: comparative experiment, post-emergence, 20 g of a.i./ha

Compound | Herbicidal action against STEME
CCSCc1c(C(F)(F)F)ccc(C(=O)Nc2nnnn2C)c1Br [Example 1-383] | 100

same assay, conditions: post-emergence, dosage 80 g/ha

Compound | herbicidal action STEME [%]
CSCc1c(C(F)(F)F)ccc(C(=O)Nc2nnnn2C)c1C [Example 1-83] | 100
CCn1nnnc1NC(=O)c1ccc(C(F)(F)F)c(CSCCOC)c1Cl [Example 2-305] | 100
CCCn1nnnc1NC(=O)c1ccc(C(F)(F)F)c(C[S+](C)[O-])c1SC (stereo not shown) [Example 3-162] | 100
CC[S+]([O-])Cc1c(C(F)(F)F)ccc(C(=O)Nc2nnnn2C)c1Br (racemic) [Example 1-384] | 90
CCSCc1c(C(F)(F)F)ccc(C(=O)Nc2nnnn2C)c1Br [Example 1-383] | 100
CCSCc1c(C(F)(F)F)ccc(C(=O)Nc2nnnn2C)c1Cl [Example 1-299] | 100
Cn1nnnc1NC(=O)c1ccc(C(F)(F)F)c(CS(=O)(=O)C2CC2)c1Cl [Example 1-304] | 100

tested on: Matricaria inodora; test: Post-emergence herbicidal action, MATIN; assay type: in vivo; parameters: key: % herbicidal action vs untreated; 100 = plants died, 0 = like control; settings: Dosage 80 g/ha
Outline: as §2

Compound | herbicidal action MATIN
CCCn1nnnc1NC(=O)c1ccc(C(F)F)c(CSC)c1SC [Example 3-170] | 100
CCCn1nnnc1NC(=O)c1ccc(C(F)F)c(CS(C)(=O)=O)c1Cl [Example 3-322] | 90
CCCn1nnnc1NC(=O)c1ccc(C(F)(F)F)c(CS(C)(=O)=O)c1SC [Example 3-163] | 90
CCn1nnnc1NC(=O)c1ccc(C(F)(F)F)c(C[S+]([O-])CC2CC2)c1Cl (stereo not shown) [Example 2-315] | 90

same assay, conditions: comparative experiment, post-emergence, 5 g of a.i./ha

Compound | Herbicidal action against MATIN
CCSCc1c(C(F)(F)F)ccc(C(=O)Nc2nnnn2C)c1Cl [Example 1-299] | 80

same assay, conditions: comparative experiment, post-emergence, 20 g of a.i./ha

Compound | Herbicidal action against MATIN
CC[S+]([O-])Cc1c(C(F)(F)F)ccc(C(=O)Nc2nnnn2C)c1Br (racemic) [Example 1-384] | 90

same assay, conditions: post-emergence, dosage 80 g/ha

Compound | herbicidal action MATIN [%]
CSCc1c(C(F)(F)F)ccc(C(=O)Nc2nnnn2C)c1C [Example 1-83] | 100
CCn1nnnc1NC(=O)c1ccc(C(F)(F)F)c(CSCCOC)c1Cl [Example 2-305] | 100
CCCn1nnnc1NC(=O)c1ccc(C(F)(F)F)c(C[S+](C)[O-])c1SC (stereo not shown) [Example 3-162] | 100
CC[S+]([O-])Cc1c(C(F)(F)F)ccc(C(=O)Nc2nnnn2C)c1Br (racemic) [Example 1-384] | 90
CCSCc1c(C(F)(F)F)ccc(C(=O)Nc2nnnn2C)c1Br [Example 1-383] | 90
CCSCc1c(C(F)(F)F)ccc(C(=O)Nc2nnnn2C)c1Cl [Example 1-299] | 90
Cn1nnnc1NC(=O)c1ccc(C(F)(F)F)c(CS(=O)(=O)C2CC2)c1Cl [Example 1-304] | 90

tested on: Polygonum convolvulus; test: Post-emergence herbicidal action, POLCO; assay type: in vivo; settings: Dosage 80 g/ha
Outline: as §2

Compound | herbicidal action POLCO
CCCn1nnnc1NC(=O)c1ccc(C(F)F)c(CSC)c1SC [Example 3-170] | 90
CCCn1nnnc1NC(=O)c1ccc(C(F)F)c(CS(C)(=O)=O)c1Cl [Example 3-322] | 80
CCCn1nnnc1NC(=O)c1ccc(C(F)(F)F)c(CS(C)(=O)=O)c1SC [Example 3-163] | 90
CCn1nnnc1NC(=O)c1ccc(C(F)(F)F)c(C[S+]([O-])CC2CC2)c1Cl (stereo not shown) [Example 2-315] | 100

same assay, conditions: comparative experiment, post-emergence, 5 g of a.i./ha

Compound | Herbicidal action against POLCO
CCSCc1c(C(F)(F)F)ccc(C(=O)Nc2nnnn2C)c1Cl [Example 1-299] | 60

same assay, conditions: post-emergence, dosage 80 g/ha

Compound | herbicidal action POLCO [%]
CSCc1c(C(F)(F)F)ccc(C(=O)Nc2nnnn2C)c1C [Example 1-83] | 90
CCn1nnnc1NC(=O)c1ccc(C(F)(F)F)c(CSCCOC)c1Cl [Example 2-305] | 100
CCCn1nnnc1NC(=O)c1ccc(C(F)(F)F)c(C[S+](C)[O-])c1SC (stereo not shown) [Example 3-162] | 100
CC[S+]([O-])Cc1c(C(F)(F)F)ccc(C(=O)Nc2nnnn2C)c1Br (racemic) [Example 1-384] | 90
CCSCc1c(C(F)(F)F)ccc(C(=O)Nc2nnnn2C)c1Br [Example 1-383] | 90
CCSCc1c(C(F)(F)F)ccc(C(=O)Nc2nnnn2C)c1Cl [Example 1-299] | 80
Cn1nnnc1NC(=O)c1ccc(C(F)(F)F)c(CS(=O)(=O)C2CC2)c1Cl [Example 1-304] | 100

tested on: Pharbitis purpurea; test: Pre-emergence herbicidal action, PHBPU; assay type: in vivo; settings: dosage 320 g/ha, scored visually after 3 weeks vs untreated controls (100% = plants have died)
Outline: as §1

Compound | herbicidal activity PHBPU [%]
CSCc1c(C(F)(F)F)ccc(C(=O)Nc2nnnn2C)c1C [Example 1-83] | 80
CCCn1nnnc1NC(=O)c1ccc(C(F)F)c(CSC)c1SC [Example 3-170] | 80
CCCn1nnnc1NC(=O)c1ccc(C(F)F)c(CS(C)(=O)=O)c1Cl [Example 3-322] | 90
CCn1nnnc1NC(=O)c1ccc(C(F)(F)F)c(CSCCOC)c1Cl [Example 2-305] | 100
CCCn1nnnc1NC(=O)c1ccc(C(F)(F)F)c(C[S+](C)[O-])c1SC (stereo not shown) [Example 3-162] | 90
CCCn1nnnc1NC(=O)c1ccc(C(F)(F)F)c(CS(C)(=O)=O)c1SC [Example 3-163] | 80
CC[S+]([O-])Cc1c(C(F)(F)F)ccc(C(=O)Nc2nnnn2C)c1Br (racemic) [Example 1-384] | 90
CCSCc1c(C(F)(F)F)ccc(C(=O)Nc2nnnn2C)c1Br [Example 1-383] | 80
CCn1nnnc1NC(=O)c1ccc(C(F)(F)F)c(C[S+]([O-])CC2CC2)c1Cl (stereo not shown) [Example 2-315] | 90
CCSCc1c(C(F)(F)F)ccc(C(=O)Nc2nnnn2C)c1Cl [Example 1-299] | 90
Cn1nnnc1NC(=O)c1ccc(C(F)(F)F)c(CS(=O)(=O)C2CC2)c1Cl [Example 1-304] | 100
